# Measurements taken from paper PMC9322052, “Synthesis and Biological Activity Screening of Newly Synthesized Trimethoxyphenyl-Based Analogues as Potential Anticancer Agents” (Molecules, 2022).
# Experiments:
# HepG2 cells = experiment: Cell cycle analysis by PI staining / FACS; assay type: cell-based, human; details: 48 h
# Procedure: It is well documented that exposure to microtubule targeting agents leads to the malformed mitotic spindle which eventually leads to cell cycle arrest at the G2/M phase and apoptosis induction. Thus, the effect of the selected candidate 9 on the cell cycle progression of the HepG2 cell line was examined by flow cytometry analysis (FACS). The HepG2 cell line was treated with the IC50 concentration of compound 9 for 48 h.
# Cell cycle analysis in HepG2 cells was carried out by FACS analysis according to the manufacturer’s directions. See Section 3.3.3 in Supplementary Material.
# Figure 3 Compound 9 induces G2/M phase disturbance in HepG2 cells. (A) HepG2 cells were treated with 1.38 μM of compound 9 for 48 h. […]
# (§1) To measure the cytotoxic activity of the synthesized derivatives 2a-11 in hepatocel-lular carcinoma (HepG2) cell line (ATCC Cat No. HB-8065) as well as normal human liver cell line HL-7702 (ATCC Cat. No. 77402), cell viability assay was assessed using MTT assay method. […] The color inten-sity of the formazan product, which represents the growth condition of the cells, is quan-tified by using an ELISA plate reader (EXL 800, USA) at 570 nm absorbance. […]
# Compounds 9, 10 and 11 were evaluated for their tubulin inhibitory activity levels according to the manufacturer’s instructions using # abcam Human Beta-tubulin simplestep […]
# p53 = experiment: ELISA quantification of p53 level; assay type: cell-based, human; details: HepG2, 1.38 μM (IC50), 48 h
# Procedure: Compound 9 was screened for its ability to activate p53 and Bax as well as downregulate the level of Bcl-2 to investigate the mechanistic apoptotic pathway that catalyzed the apoptosis process. HepG2 cells were treated with compound 9 at a concentration equal to its IC50 in μM, and the level of p53, Bax, and Bcl-2 was quantized using ELISA analysis. The results obtained for compound 9 show the increase in the level of p53 and Bax by 8.91- and 4.50-fold, respectively, compared with the negative control samples.
# Apoptotic markers (p53, Bax and Bcl-2) were measured in HepG2 cells using ELISA analysis according to the manufacturer’s directions. See Section 3.3.6 in Supplementary Material.
# Figure 6 (A) The quantification of p53. (B) The quantification of Bax. (C) The quantification of Bcl-2. HepG2 cells were treated with 1.38 μM of compound 9 for 48 h and apoptotic markers were determined by ELISA assay.
# 3.3.1. Cytotoxic activity evaluation
# as §1
structure (smiles),measurement,setting,value
"COc1ccc(C2=N/C(=C\c3cc(OC)c(OC)c(OC)c3)C(=O)NN2c2ccccc2)cc1OC [Compound 9, (Z)-3-(3,4-Dimethoxyphenyl)-2-Phenyl-5-(3,4,5-Trimethoxybenzylidene)-1,2-Dihydro-1,2,4-Triazin-6(5H)-one]",G2/M cell population percentage,"HepG2 cells; HepG2, 1.38 μM (IC50), control 13.28%",30.83%
same,fold increase in G2/M cell population compared to untreated control,"HepG2 cells; HepG2, IC50 concentration",~3 fold
same,increase in level of p53 compared with negative control,p53,8.91 fold
